According to PubChem BioAssay AID2060891 (Molecular Pharmacology Branch, DTP, NCI, 2025):

Test system: K98450-129-R-PDC complex spheroid growth, percent test/control
Test: Anticancer human tumor K98450-129-R-PDC patient-derived colon adenocarcinoma cell line growth inhibition [RAS]
Details: for IC50: curve of first compound; for viability, T/C: stronger effect = lower value
How it was run: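 Tumour cells grown as complex spheroids with HUVEC endothelial cells and mesenchymal stem cells, treated with RAS pathway inhibitor combinations. Each agent spans half-log steps from near clinical Cmax, or 10 microM where Cmax is unknown.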

[1] = second compound 0.000949 µM, first compound 0.0316 µM
[2] = second compound 0.000949 µM, first compound 0.1 µM
[3] = second compound 0.000949 µM, first compound 0.316 µM
[4] = second compound 0.000949 µM, first compound 1 µM
[5] = second compound 0.000949 µM, first compound 3.16 µM
[6] = second compound 0.000949 µM, first compound 10 µM
[7] = second compound 0.003 µM, first compound 0.0316 µM
[8] = second compound 0.003 µM, first compound 0.1 µM
[9] = second compound 0.003 µM, first compound 0.316 µM
[10] = second compound 0.003 µM, first compound 1 µM
[11] = second compound 0.003 µM, first compound 3.16 µM
[12] = second compound 0.003 µM, first compound 10 µM
[13] = second compound 0.00949 µM, first compound 0.0316 µM
[14] = second compound 0.00949 µM, first compound 0.1 µM
[15] = second compound 0.00949 µM, first compound 0.316 µM
[16] = second compound 0.00949 µM, first compound 1 µM
[17] = second compound 0.00949 µM, first compound 3.16 µM
[18] = second compound 0.00949 µM, first compound 10 µM
[19] = second compound 0.03 µM, first compound 0.0316 µM
[20] = second compound 0.03 µM, first compound 0.1 µM
[21] = second compound 0.03 µM, first compound 0.316 µM
[22] = second compound 0.03 µM, first compound 1 µM
[23] = second compound 0.03 µM, first compound 3.16 µM
[24] = second compound 0.03 µM, first compound 10 µM
[25] = second compound 0.0949 µM, first compound 0.0316 µM
[26] = second compound 0.0949 µM, first compound 0.1 µM
[27] = second compound 0.0949 µM, first compound 0.316 µM
[28] = second compound 0.0949 µM, first compound 1 µM
[29] = second compound 0.0949 µM, first compound 3.16 µM
[30] = second compound 0.0949 µM, first compound 10 µM
[31] = second compound 0.3 µM, first compound 0.0316 µM
[32] = second compound 0.3 µM, first compound 0.1 µM
[33] = second compound 0.3 µM, first compound 0.316 µM
[34] = second compound 0.3 µM, first compound 1 µM
[35] = second compound 0.3 µM, first compound 3.16 µM
[36] = second compound 0.3 µM, first compound 10 µM
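Further: spheroids exposed to agents for seven days before the viability readout.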
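Wherever viability, T/C is given: luminescence used as a proxy for viable cell amount.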

`CC(C)NCC(C(=O)N1CCN(c2ncnc3c2C(C)CC3O)CC1)c1ccc(Cl)cc1` (centres undefined) + CCn1c(-c2cc(N3CCN(C)CC3)cnc2C(C)OC)c2c3cc(ccc31)-c1csc(n1)CC(NC(=O)C1CC1C)C(=O)N1CCCC(N1)C(=O)OCC(C)(C)C2 gave an IC50 (second compound 0.000949 µM) of over 10 µM, an IC50 (second compound 0.003 µM) of over 10 µM and an IC50 (second compound 0.00949 µM) of over 10 µM. For the same compound, the IC50 (second compound 0.03 µM) was under 0.0316 µM, the IC50 (second compound 0.0949 µM) was under 0.0316 µM and the IC50 (second compound 0.3 µM) was under 0.0316 µM. The viability, T/C [1] was 104%, the viability, T/C [2] was 93.3% and the viability, T/C [3] was 89.9%. For the same compound, the viability, T/C [4] was 73.3%, the viability, T/C [5] was 100% and the viability, T/C [6] was 89.9%. For the same compound, the viability, T/C [7] was 90.7%, the viability, T/C [8] was 80.8% and the viability, T/C [9] was 87.1%. The viability, T/C [10] was 76.5%, the viability, T/C [11] was 75.3% and the viability, T/C [12] was 79.7%. The viability, T/C [13] was 66.7%, the viability, T/C [14] was 67% and the viability, T/C [15] was 70%. The viability, T/C [16] was 74.5%, the viability, T/C [17] was 77.4% and the viability, T/C [18] was 67.5%. For the same compound, the viability, T/C [19] was 48.7%, the viability, T/C [20] was 44.8% and the viability, T/C [21] was 52.7%. It also gave a viability, T/C [22] of 47.7%, a viability, T/C [23] of 54.7% and a viability, T/C [24] of 46.9%. The viability, T/C [25] was 19%, the viability, T/C [26] was 24.3% and the viability, T/C [27] was 17.6%. The viability, T/C [28] was 17.8%, the viability, T/C [29] was 16.2% and the viability, T/C [30] was 11.2%. It also gave a viability, T/C [31] of 11.1%, a viability, T/C [32] of 12.6% and a viability, T/C [33] of 12.5%. The viability, T/C [34] was 10.1%, the viability, T/C [35] was 9.61% and the viability, T/C [36] was 7.13%.
`CC(Nc1ccc2c(c1)OCCn1cc(N3C(=O)OCC3C(F)F)nc1-2)C(N)=O` (centres undefined) + CCn1c(-c2cc(N3CCN(C)CC3)cnc2C(C)OC)c2c3cc(ccc31)-c1csc(n1)CC(NC(=O)C1CC1C)C(=O)N1CCCC(N1)C(=O)OCC(C)(C)C2 gave an IC50 (second compound 0.000949 µM) of over 10 µM, an IC50 (second compound 0.003 µM) of over 10 µM and an IC50 (second compound 0.00949 µM) of over 10 µM. For the same compound, the IC50 (second compound 0.03 µM) was under 0.0316 µM, the IC50 (second compound 0.0949 µM) was under 0.0316 µM and the IC50 (second compound 0.3 µM) was under 0.0316 µM. For the same compound, the viability, T/C [1] was 93.6%, the viability, T/C [2] was 83.7% and the viability, T/C [3] was 86.7%. It also gave a viability, T/C [4] of 63.9%, a viability, T/C [5] of 70.4% and a viability, T/C [6] of 61.7%. It also gave a viability, T/C [7] of 84%, a viability, T/C [8] of 81.1% and a viability, T/C [9] of 75.2%. The viability, T/C [10] was 67.5%, the viability, T/C [11] was 68.4% and the viability, T/C [12] was 61.3%. For the same compound, the viability, T/C [13] was 73.8%, the viability, T/C [14] was 74.8% and the viability, T/C [15] was 60.5%. For the same compound, the viability, T/C [16] was 55.4%, the viability, T/C [17] was 54.8% and the viability, T/C [18] was 51%. It also gave a viability, T/C [19] of 38.4%, a viability, T/C [20] of 48.4% and a viability, T/C [21] of 42.3%. For the same compound, the viability, T/C [22] was 35.4%, the viability, T/C [23] was 33.8% and the viability, T/C [24] was 26.8%. It also gave a viability, T/C [25] of 17.5%, a viability, T/C [26] of 15.9% and a viability, T/C [27] of 16%. It also gave a viability, T/C [28] of 14.7%, a viability, T/C [29] of 10.8% and a viability, T/C [30] of 10.1%. For the same compound, the viability, T/C [31] was 10%, the viability, T/C [32] was 10.2% and the viability, T/C [33] was 9.37%. For the same compound, the viability, T/C [34] was 8.15%, the viability, T/C [35] was 7.17% and the viability, T/C [36] was 4.8%.
